[ ]: non-standard residue; d: D form. The star is where a group is joined. Octanoyl = CCCCCCCC(=O)*; Aib = CC(C)(N)C(=O)O
How the values were obtained:
[1] = tested on: Botrytis cinerea; type: cell-based, Botrytis cinerea (strain PM10)
[2] = tested on: Pyricularia oryzae; type: cell-based, Pyricularia oryzae (strain IT10)
[3] = tested on: Fusarium graminearum; type: cell-based, Fusarium graminearum (strain 8/1)
[4] = tested on: Plasmopara viticola; assay: Infection by P. viticola on vine leaf discs; type: in vivo, Plasmopara viticola on vine leaf discs (cv. Glera); details: peptide 50 μM, 12 days after inoculation
Experimental: Infection tests were performed on vine leaf disks (cv. Glera) of 1 cm in diameter. Twenty leaf discs obtained from randomly collected leaves from different plants were placed with the lower side facing upwards on moistened sterile paper placed in Petri dishes (15 cm diameter). Approximately 0.1 mL of each aqueous solution containing the peptide (50 μM) was distributed on each leaf disc. Aqueous suspensions of P. viticola sporangia, collected from infected vine plants, were diluted to obtain 3-5×10^5 sporangia/mL and distributed on the leaf discs. The plates containing the leaf discs were incubated in the dark at room temperature (22-23° C.). The incidence was calculated 12 days after inoculation as the ratio of the number of sporulating discs to the total number of discs inoculated. Control plates contained water-treated leaf discs. Two or three plates were used for each treatment. The data obtained were statistically analysed by applying the Anova and Bonferroni-Holmes one-way test.

[5] = tested on: Fusarium graminearum; type: cell-based
[6] = tested on: Pyricularia oryzae; set-up: species or system Pyricularia oryzae strain IT10 on barley leaves; details: in vivo
[7] = tested on: Pyricularia oryzae; type: cell-based
[8] = tested on: Fusarium graminearum; set-up: species or system Fusarium graminearum on ears of wheat; details: in vivo

1-octanoyl-Leu-Aib-Lys(HCl)-Ile-Leu-NH2 [SEQ. ID. No. 10]
decrease of growth of Botrytis cinerea compared to the untreated control [1]: at least 95%
decrease of growth of Pyricularia oryzae compared to the untreated control [2]: at least 95%
decrease of growth of Fusarium graminearum compared to the untreated control [3]: at least 95%

1-octanoyl-Aib-Gly-Leu-Aib-Gly-Gly-Leu-Aib-Lys(HCl)-Ile-Lol [SEQ. ID. No. 5]
decrease of growth of Botrytis cinerea compared to the untreated control [1]: at least 95%
incidence of Plasmopara viticola infection on vine leaf discs [4]: significantly decreases the P. viticola infection

1-octanoyl-Aib-Gly-Leu-Aib-Gly-Gly-Leu-Aib-Lys(HCl)-Ile-Leu-NH2 (Octanoyl-[Aib]GL[Aib]GGL[Aib]KIL-NH2; also: Lys9 as HCl salt) [SEQ. ID. No. 6]
incidence of Plasmopara viticola infection on vine leaf discs [4]: significantly decreases the P. viticola infection

1-octanoyl-Aib-Lys(HCl)-Leu-Aib-Lys(HCl)-Gly-Leu-Aib-Lys(HCl)-Ile-Lol [SEQ. ID. No. 1]
microscopic observation of Fusarium graminearum after treatment [5]: germination is inhibited and the cytoplasm is agglutinated
decrease of infected (lesion) area of barley leaves compared to control leaves [6]: at least 95%
microscopic observation of Pyricularia oryzae spores after treatment [7]: germination is inhibited and the cytoplasm is agglutinated
viability of Pyricularia oryzae spores (autofluorescence of agglutinated cytoplasm) [7]: the cells are no longer viable
decrease of infection (infected spikelets) in treated ears compared to untreated control ears [8]: at least 95%
further decrease of infection compared with treatment with PEP4 and PEP4-rink [8]: 10-30%
protection of the ear of wheat against infection caused by Fusarium graminearum [8]: protects the ear of wheat against infection caused by Fusarium graminearum
protection of the ear of wheat compared with the known peptide PEP4 [8]: greater
